Values of other authors as cited in patent US7351710B2, “Preparation of amorphous form of indiplon” (Mai De Ltd., priority 2005, dated 2008).

CC(=O)N(C)c1cccc(-c2ccnc3c(C(=O)c4cccs4)cnn23)c1 [crystalline indiplon, N-Methyl-N-[3-[3-[2-thienylcarbonyl]pyrazolo[1,5-a]pyrimidin-7-yl]phenyl]acetamide]
solubility (in water, crystalline form): 20 to 30 µg/mL

CC(=O)N(C)c1cccc(-c2ccnc3c(C(=O)c4cccs4)cnn23)c1 [Indiplon, N-Methyl-N-[3-[3-[2-thienylcarbonyl]pyrazolo[1,5-a]pyrimidin-7-yl]phenyl]acetamide]
solubility in water (in words) (water): practically insoluble
